Earlier results as cited in US10413531B2, “Methods of treating bladder cancer” (Abraxis BioScience, LLC, priority 2013, dated 2019).

Legend:
ABCB1/ABCG2 = settings: Lin et al. (2013) Int J Cancer
[1] = Lin et al. (2013) Int J Cancer

In the case of COc1ccc(COc2cc3oc(=O)c4cc(C(C)O)ccc4c3cc2OC)cc1 (centres unmarked) [Palomid 529], the “affinity for ABCB1/ABCG2” value (ABCB1/ABCG2) is listed as “lacks affinity for ABCB1/ABCG2” and the brain penetration [1] is listed as “good brain penetration”.
